Entries after “also recorded” stand apart in the source; their conditions may differ. Where a name gives a salt, the structure may show the parent alone.
Experiments:
[1] = target: T1, glucagon receptor (rat hepatocyte membrane) (Rattus norvegicus, UniProt P30082); test: Glucagon receptor binding inhibition; settings: SD rat liver cell membrane, 50 pM (3-[125I]iodotyrosyl10)glucagon, 25° C., 120 minutes; read-out: IC50 (nM) Rat, glucagon receptor binding inhibitory activity
T1 construct: A cell membrane was prepared from the liver of an SD rat; from tissue; host or cells: SD rat liver (cell membrane fraction)
Description: The composition of the reaction solution used in the receptor binding inhibition experiment was prepared according to the method described in Bioorg. Med. Chem. Lett., 1992, 12, 915-918, using the following methods. (3-[^125I] iodotyrosyl^10) Glucagon and a rat hepatocyte membrane were obtained or prepared according to the following methods.
(3-[^125I] iodotyrosyl^10)Glucagon was obtained according to the following method at PerkinElmer Co., Ltd (Great Britain). Using a chloramine T method, glucagon (Peptide Institute) was labeled with [^125I], and (3-[^1251] iodotyrosyl ^10)Glucagon was separated using HPLC. Purchased from PerkinElmer Co., Ltd. (Great Britain), was a product obtained by dissolving it in an aqueous solution containing 10 mM citric acid, 5% lactose, 0.2% cysteine HCl, and 0.25% BSA so that the radioactivity was 3.7 MBq/mL at reference date, followed by freeze-drying. The product was re-dissolved in a 0.3-TIU/mL aprotinin aqueous solution so that the radioactivity was 3.7 MBq/mL at reference date, and it was freeze-stored at −15 to −40° C. for use.
A cell membrane was prepared from the liver of an SD rat according to the method described on pages 31 to 33 of Zikken Seibutsugaku Kouza 6, Saibou bunkakuhou (Experimental Biology Lecture 6, Cell Fraction Method) (Maruzen Co., Ltd.). The resulting cell membrane was freeze-stored at −70 to −85° C. for use.
The cell membrane that had been dissolved at room temperature and then suspended using a Physcotron (Microtec Co., Ltd. was added to a 50-mM Tris-HCl buffer (pH 7.2) containing 1 mg/mL BSA (Sigma-Aldrich), 0.1 mg/mL bacitracin (Wako Pure Chemical Industries, Ltd.), 1% DMSO, 0.01% acetic acid, and 50 pM) (3-[^125I] iodotyrosyl^10) Glucagon (pH 7.2) (each value indicating the final concentration and the radioactivity of (3-[^125I] iodotyrosyl^10) Glucagon calculated on the measurement date) to give a total amount of 0.2 mL. The reaction was started and incubation was performed at 25° C. for 120 minutes. The concentration of the cell membrane was adjusted so that 10% of the added)(3-[^1251] iodotyrosyl^100 Glucagon was equal to the total amount of binding.
Using a GF/C filter (Whatman International Ltd., Great Britain) immersed for more than 15 minutes in 0.3% polyethyleneimine (Sigma-Aldrich, Co., LLC), whose pH was adjusted to 7.2 by adding hydrochloric acid, the reaction solution was subjected to suction filtration to recover (3-[^125I] iodotyrosyl)Glucagon bound to the membrane. The filter was washed 3 times with an ice-cooled 50-mM Tris-HCl buffer (pH 7.4), and the radioactivity of the filter was measured by using a γ counter (1470 WIZARD γ-counter)(Wallac). The amount of specific binding was measured by subtracting the amount of nonspecific binding determined in the presence of 10 μM glucagon (Peptide Institute, Inc.) from the total amount of binding.
The amount of specific binding in the absence of a test compound was regarded as 100%, and inhibitions (%) at various concentrations of test compounds were calculated. The concentration at 50% inhibition of binding (IC50) was calculated using a nonlinear least squares method.

ob/ob mice [2] = test: Blood sugar decrease in ob/ob mice (hyperglycemia and impaired fasting glycemia); format: in vivo
From the text: Effects of the compound of Example 69 on hyperglycemia and impaired fasting glycemia in ob/ob mice, which are type II diabetes models, were examined.
B6.V-Lepob/J (ob/ob) mice and control B6.V-Lepob/J (?/+) mice (male, 6 to 7 weeks old, n=8, Charles River Japan Inc.) were used. To examine the effect on hyperglycemia, feed was removed from the cage at the same time as the start of drug administration, and to examine the effect on impaired fasting glycemia, feed was removed from the cage about 20 hours before the scheduled time of drug administration. Under each experimental condition, the mice were allowed free access to drinking water. 2, 4 and 6 hours after the forced oral administration of the compound (0.01-1.0 mg/kg) of Example 69, which had been suspended in 0.5% methyl cellulose, the blood sugar levels were examined.

ob/ob mice [3] = test: Combination use with DPPIV inhibitor sitagliptin, postprandial hyperglycemia in ob/ob mice; format: in vivo
Description: B6.V-Lepob/J (ob/ob) mice and control B6.V-Lepob/J (?/+) mice (male, 6 to 7 weeks old, n=8, Charles River Japan) were used. […] One hour later, liquid food (ensure H, Abbott Japan, Co., Ltd., 1.5 kcal/mL) was orally administered. The blood sugar levels immediately before, and 15, 30, 60, and 90 minutes after administration of the liquid food were measured.

ob/ob mice [4] = test: Combination use with metformin, HbA1c in ob/ob mice; format: in vivo; settings: oral; for HbAlc value: single use, 4 weeks (Example 69 3 mg/kg twice a day; metformin 100 mg/kg twice a day)
Description: An experiment using the compound of Example 69 and metformin in combination was performed to examine the effect on the HbAlc value in ob/ob mice.
B6.V-Lepob/J (ob/ob) mice and control B6.V-Lepob/J (?/+) mice (male, 6 to 7 weeks old, n=8, Charles River Japan) were used. The compound of Example 69 (3 mg/kg, twice a day) suspended in 0.5% methyl cellulose, and metformin (100 mg/kg, twice a day) dissolved in the solvent were orally administered repeatedly for 4 weeks singly or in combination.

ob/ob mice [5] = test: Combination use with pioglitazone, HbA1c in ob/ob mice; format: in vivo; settings: oral
Description: An experiment using the compound of Example 69 and pioglitazone in combination was performed to examine the effect on the HbAlc values in ob/ob mice.
B6.V-Lepob/J (ob/ob) mice and control B6.V-Lepob/J (?/+) mice (male, 6 to 7 weeks old, n=8, Charles River Japan) were used. The compound of Example 69 suspended in 0.5% methyl cellulose (3 mg/kg, twice a day), and pioglitazone (1 mg/kg, once a day) were orally administered repeatedly for 4 weeks singly or in combination.
The effects were compared based on the […] (HbA1c) value, and a diabetes-like state (prolonged hyperglycemic state) was confirmed by HbA1c increase in the ob/ob mice.

[6] = combination use of Example 69 (0.1 mg/kg) and sitagliptin (5 mg/lm), single oral dose
[7] = single use, single oral dose (Example 69 0.1 mg/kg; sitagliptin 5 mg/lm) one hour before liquid food

T1 sequence (P30082 27-485): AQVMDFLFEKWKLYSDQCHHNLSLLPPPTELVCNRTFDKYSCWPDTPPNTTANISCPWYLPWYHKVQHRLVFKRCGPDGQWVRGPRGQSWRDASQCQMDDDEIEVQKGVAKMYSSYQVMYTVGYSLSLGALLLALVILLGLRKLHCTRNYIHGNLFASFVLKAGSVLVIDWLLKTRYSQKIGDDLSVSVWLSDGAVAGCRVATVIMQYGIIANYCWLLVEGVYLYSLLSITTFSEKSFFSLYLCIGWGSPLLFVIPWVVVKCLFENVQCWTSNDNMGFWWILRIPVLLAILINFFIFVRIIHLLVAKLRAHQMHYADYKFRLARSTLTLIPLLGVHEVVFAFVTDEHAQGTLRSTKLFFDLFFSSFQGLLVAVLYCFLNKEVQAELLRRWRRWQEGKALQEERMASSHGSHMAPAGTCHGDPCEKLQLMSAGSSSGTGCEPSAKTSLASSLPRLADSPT

| Compound | IC50 [1] [nM] | other results |
| --- | --- | --- |
| N#Cc1cc(C(=O)NNC(=O)c2occc2-c2cccc(NC(=O)c3ccccc3)c2)ccc1O [Compound A, reference compound] | 2800 |  |
| CC(=O)N(Cc1ccccc1)c1cccc(-c2ccoc2C(=O)NNC(=O)c2ccc(O)c(C#N)c2)c1 [Compound B, reference compound] | 1200 |  |
| CC(=O)Nc1cccc(-c2ccoc2C(=O)NNC(=O)c2ccc(O)c(C#N)c2)c1 [Compound C, reference compound] | 340 |  |
| N#Cc1cc(C(=O)NNC(=O)c2occc2-c2cccc(NC(=O)OCc3ccccc3)c2)ccc1O [Compound D, reference compound] | 400 |  |
| N#Cc1cc(C(=O)NNC(=O)c2occc2-c2cccc(N)c2)ccc1O [Compound E, reference compound] | 9800 |  |
| Cc1ccc(C(C)Nc2ccc(-c3ccoc3C(=O)NNC(=O)c3ccc(O)c([N+](=O)[O-])c3)cc2)cc1 (stereo not drawn) [Example 1, 3-(4-{[1-(4-methylphenyl)ethyl]amino}phenyl)-2-furan carboxylic acid-2-(4-hydroxy-3-nitrobenzoyl)hydrazide hydrochloride] | 0.22 |  |
| CC(C)(C)c1ccc(CNc2ccc(-c3ccoc3C(=O)NNC(=O)c3ccc(O)c([N+](=O)[O-])c3)cc2)cc1 [Example 6] | 0.13 |  |
| O=C(NNC(=O)c1occc1-c1ccc(NCc2ccc(OC(F)(F)F)cc2)cc1)c1ccc(O)c([N+](=O)[O-])c1 [Example 7] | 0.34 |  |
| C[C@H](Nc1ccc(-c2ccoc2C(=O)NNC(=O)c2ccc(O)c([N+](=O)[O-])c2)cc1)c1ccc(F)cc1 [Example 68, 3-(4-{[(1S)-1-(4-fluorophenyl)ethyl]amino}phenyl)-2-furan carboxylic acid-2-(4-hydroxy-3-nitrobenzoyl)hydrazide] | 0.11 |  |
| Cc1ccc([C@H](C)Nc2ccc(-c3ccoc3C(=O)NNC(=O)c3ccc(O)c([N+](=O)[O-])c3)cc2)cc1 [Example 69] | 0.085 | duration of the blood sugar decreasing effect (ob/ob mice [2]; high-dose administration, oral): continued even 6 hours after the administration; blood sugar level relative to the healthy (control) mouse (ob/ob mice [2]; oral 0.01-1.0 mg/kg): not reduced to below the level of the healthy mouse; blood sugar decreasing effect at 2 hours after administration (ob/ob mice [2]; oral 0.01-1.0 mg/kg, any dosage, under each experimental condition (hyperglycemia; impaired fasting glycemia)): remarkable blood sugar decreasing effect; area under the blood concentration-time curve (blood sugar) after liquid food (ob/ob mice [3]; [6]): normalized; blood sugar level 15 minutes after the administration of liquid food (ob/ob mice [3]; [6]): normalized; hypoglycemia (ob/ob mice [3]; [6]): without causing hypoglycemia; postprandial hyperglycemia inhibitory effect versus the single use of each agent (ob/ob mice [3]; combination use of Example 69 and sitagliptin (FIGS. 1 and 2)): extremely stronger postprandial hyperglycemia inhibitory effect; area under the blood concentration-time curve (blood sugar) after liquid food (ob/ob mice [3]; [7]): normalized; blood sugar increase 15 minutes after the administration of liquid food (ob/ob mice [3]; [7]): could not normalize; HbAlc reduction effect versus single use (ob/ob mice [4]; combination use of Example 69 (3 mg/kg twice a day) and metformin (100 mg/kg twice a day), 4 weeks): higher HbAlc reduction effect; also recorded: extremely stronger HbAlc reduction effect; HbAlc value (ob/ob mice [4]): HbAlc reduction; HbA1c reduction effect versus single use (ob/ob mice [5]; combination use of Example 69 (3 mg/kg twice a day) and pioglitazone (1 mg/kg once a day), 4 weeks): higher HbA1c reduction effect; also recorded: extremely stronger HbA1c reduction effect; HbA1c value (ob/ob mice [5]; single use, 4 weeks (Example 69 3 mg/kg twice a day; pioglitazone 1 mg/kg once a day)): attained HbA1c reduction |
| CCc1ccc([C@H](C)Nc2ccc(-c3ccoc3C(=O)NNC(=O)c3ccc(O)c([N+](=O)[O-])c3)cc2)cc1 [Example 70] | 0.13 |  |
| Cc1ccc([C@H](C)Nc2ccc(-c3ccoc3C(=O)NNC(=O)c3ccc(O)c([N+](=O)[O-])c3)cc2)cc1C [Example 71] | 0.043 |  |
| C[C@H](Nc1ccc(-c2ccoc2C(=O)NNC(=O)c2ccc(O)c([N+](=O)[O-])c2)cc1)c1ccc(Cl)cc1 [Example 72] | 0.14 |  |
| Cc1cccc([C@H](C)Nc2ccc(-c3ccoc3C(=O)NNC(=O)c3ccc(O)c([N+](=O)[O-])c3)cc2)c1 [Example 73] | 0.16 |  |
| Cc1cc([C@H](C)Nc2ccc(-c3ccoc3C(=O)NNC(=O)c3ccc(O)c([N+](=O)[O-])c3)cc2)ccc1Cl [Example 75] | 0.12 |  |
| C[C@@H](Nc1ccc(-c2ccoc2C(=O)NNC(=O)c2ccc(O)c([N+](=O)[O-])c2)cc1)c1ccc(F)cc1 [Example 76] | 5.8 |  |
| C[C@H](Nc1ccc(-c2ccoc2C(=O)NNC(=O)c2ccc(O)c([N+](=O)[O-])c2)cc1)C1CCCCC1 [Example 77] | 0.35 |  |
| C[C@H](Nc1ccc(-c2ccoc2C(=O)NNC(=O)c2ccc(O)c([N+](=O)[O-])c2)cc1)c1ccccc1 [Example 78] | 0.62 |  |
| C[C@H](Nc1ccc(-c2ccoc2C(=O)NNC(=O)c2ccc(O)c(C#N)c2)cc1)c1ccc(F)cc1 [Example 79, 3-(4-{[(1S)-1-(4-fluorophenyl)ethyl]amino}phenyl)-2-furan carboxylic acid-2-(3-cyano-4-hydroxybenzoyl)hydrazide] | 0.74 |  |
| CN(C)C(=N)N=C(N)N [metformin, reference compound] |  | HbAlc value (ob/ob mice [4]): HbAlc reduction |
